Data on ten molecules can be found in ChEMBL document CHEMBL5346973 (J Med Chem, 2023).

Where a SMILES comes first, the peptide text is derived from it.

Series [1] concerns the target Neuronal acetylcholine receptor; alpha9/alpha10 (Homo sapiens, UniProt Q9GZZ6+Q9UGM1). In words: Antagonist activity at human alpha9alpha10 nACh receptor expressed in Xenopus oocyte assessed as inhibition of acetylcholine-induced response at -70 mV holding potential by voltage-clamp based electrophysiological assay. Type of series: cell-based.
The nature of series [2]: Selectivity ratio of IC50 for human alpha9alpha10 nACh receptor to IC50 for rat alpha9alpha10 nACh receptor.
In series [3] the target is Nicotinic acetylcholine receptor alpha9/alpha10 (Rattus norvegicus, UniProt P43144+Q9JLB5). In words: Antagonist activity at rat alpha9alpha10 nACh receptor expressed in Xenopus oocyte assessed as inhibition of acetylcholine-induced response at -70 mV holding potential by voltage-clamp based electrophysiological assay. Format: cell-based.
The target in series [4] is Neuronal acetylcholine receptor subunit alpha-7 (Rattus norvegicus, UniProt Q05941). In words: Antagonist activity at rat alpha7 nACh receptor expressed in Xenopus oocyte assessed as inhibition of acetylcholine-induced response at -70 mV holding potential by voltage-clamp based electrophysiological assay. Type of series: cell-based.
A short description of series [5]: Stability of the compound in human serum assessed as compound remaining after 6 hr by UPLC analysis. Format: ADME, cell-free.

Neuronal acetylcholine receptor; alpha9/alpha10, sequence (Q9UGM1 whole entry): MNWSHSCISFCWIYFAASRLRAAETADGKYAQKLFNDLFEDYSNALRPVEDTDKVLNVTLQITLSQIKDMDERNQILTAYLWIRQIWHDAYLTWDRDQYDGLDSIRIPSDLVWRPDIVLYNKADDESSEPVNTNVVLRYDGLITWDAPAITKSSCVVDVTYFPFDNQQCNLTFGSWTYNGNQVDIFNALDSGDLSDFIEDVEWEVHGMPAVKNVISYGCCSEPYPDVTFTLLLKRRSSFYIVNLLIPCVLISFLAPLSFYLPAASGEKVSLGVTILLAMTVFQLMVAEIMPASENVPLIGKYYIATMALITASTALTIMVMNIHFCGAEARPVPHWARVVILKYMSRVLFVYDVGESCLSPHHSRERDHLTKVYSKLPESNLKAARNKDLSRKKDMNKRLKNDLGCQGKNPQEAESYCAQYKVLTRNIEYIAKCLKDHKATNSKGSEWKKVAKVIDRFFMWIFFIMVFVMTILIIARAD
Neuronal acetylcholine receptor; alpha9/alpha10, sequence (Q9GZZ6 whole entry): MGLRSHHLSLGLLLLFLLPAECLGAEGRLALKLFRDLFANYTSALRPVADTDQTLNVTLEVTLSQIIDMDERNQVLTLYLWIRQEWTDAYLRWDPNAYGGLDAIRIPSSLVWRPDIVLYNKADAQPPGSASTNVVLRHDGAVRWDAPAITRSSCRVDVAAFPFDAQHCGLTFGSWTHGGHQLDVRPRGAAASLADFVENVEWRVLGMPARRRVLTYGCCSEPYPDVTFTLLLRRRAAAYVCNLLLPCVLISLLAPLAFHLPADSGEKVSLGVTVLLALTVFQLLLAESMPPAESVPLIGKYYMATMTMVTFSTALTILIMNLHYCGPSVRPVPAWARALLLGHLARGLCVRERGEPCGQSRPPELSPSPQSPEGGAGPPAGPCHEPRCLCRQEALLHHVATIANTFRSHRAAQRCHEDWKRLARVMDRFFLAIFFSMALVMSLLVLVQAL
Neuronal acetylcholine receptor subunit alpha-7, sequence (Q05941 whole entry): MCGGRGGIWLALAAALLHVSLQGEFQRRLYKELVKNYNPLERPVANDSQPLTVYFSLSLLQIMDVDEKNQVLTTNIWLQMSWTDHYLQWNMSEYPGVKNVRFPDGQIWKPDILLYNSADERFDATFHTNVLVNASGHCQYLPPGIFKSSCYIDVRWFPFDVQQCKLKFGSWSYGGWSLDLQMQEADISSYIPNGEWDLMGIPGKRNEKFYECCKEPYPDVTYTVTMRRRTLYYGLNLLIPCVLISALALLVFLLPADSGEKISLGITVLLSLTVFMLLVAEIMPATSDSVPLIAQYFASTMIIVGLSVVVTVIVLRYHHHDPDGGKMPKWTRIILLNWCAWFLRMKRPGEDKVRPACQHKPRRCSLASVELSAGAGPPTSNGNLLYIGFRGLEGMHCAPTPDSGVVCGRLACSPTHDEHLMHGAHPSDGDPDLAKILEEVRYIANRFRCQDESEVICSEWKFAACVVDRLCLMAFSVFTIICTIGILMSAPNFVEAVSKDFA
Nicotinic acetylcholine receptor alpha9/alpha10, sequence (P43144 whole entry): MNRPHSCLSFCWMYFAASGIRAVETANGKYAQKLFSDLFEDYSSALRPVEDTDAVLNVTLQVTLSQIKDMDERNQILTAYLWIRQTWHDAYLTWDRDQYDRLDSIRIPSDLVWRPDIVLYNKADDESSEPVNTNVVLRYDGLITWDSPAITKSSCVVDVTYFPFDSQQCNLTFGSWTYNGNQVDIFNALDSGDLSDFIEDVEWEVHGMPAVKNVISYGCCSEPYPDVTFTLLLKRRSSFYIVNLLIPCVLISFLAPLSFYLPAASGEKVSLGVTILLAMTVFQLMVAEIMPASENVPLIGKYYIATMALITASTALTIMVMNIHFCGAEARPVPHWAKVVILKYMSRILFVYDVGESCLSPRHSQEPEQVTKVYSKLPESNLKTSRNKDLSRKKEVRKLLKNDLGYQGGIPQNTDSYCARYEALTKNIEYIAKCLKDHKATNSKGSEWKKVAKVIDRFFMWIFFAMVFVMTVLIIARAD
Nicotinic acetylcholine receptor alpha9/alpha10, sequence (Q9JLB5 whole entry): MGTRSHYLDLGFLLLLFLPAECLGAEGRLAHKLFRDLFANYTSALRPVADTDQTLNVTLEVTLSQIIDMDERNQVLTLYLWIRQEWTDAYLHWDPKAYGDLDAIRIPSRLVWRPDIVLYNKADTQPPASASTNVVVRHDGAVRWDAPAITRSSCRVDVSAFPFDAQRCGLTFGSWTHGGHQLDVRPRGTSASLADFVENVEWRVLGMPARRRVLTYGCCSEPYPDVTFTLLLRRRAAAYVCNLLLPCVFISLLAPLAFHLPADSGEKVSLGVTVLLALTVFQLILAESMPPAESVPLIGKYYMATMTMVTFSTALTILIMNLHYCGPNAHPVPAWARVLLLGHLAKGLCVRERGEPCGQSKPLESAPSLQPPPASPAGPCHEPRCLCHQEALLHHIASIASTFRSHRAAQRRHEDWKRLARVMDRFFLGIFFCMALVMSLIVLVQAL

The IC50 is the concentration that gives 50% inhibition. As to `N=C(N)NCCC[C@H](NC(=O)[C@H](CS)NC(=O)[C@H](CCCNC(=N)N)NC(=O)[C@H](Cc1ccc(O)cc1)NC(=O)[C@H](CCCNC(=N)N)NC(=O)[C@H](CS)NC(=O)[C@H](CCCNC(=N)N)NC(=O)[C@@H]1CCCN1C(=O)[C@H](CC(=O)O)NC(=O)[C@H](CO)NC(=O)[C@H](CS)NC(=O)[C@H](CS)NC(=O)CN)C(=O)O`, the IC50 in series [1] turned out to be 494 nM; in series [3], 1.5 nM. Moreover, the Ratio IC50 in series [2] was 329.
For the molecule `CC[C@H](C)[C@@H]1NC(=O)[C@H](CCCNC(=N)N)NC(=O)[C@H](CCCNC(=N)N)NC(=O)[C@@H](NC(=O)[C@H](Cc2ccc(O)cc2)NC(=O)[C@H](CCCNC(=N)N)NC(=O)[C@H](C)NC(=O)[C@H](CCCNC(=N)N)NC(=O)[C@H](CCCNC(=N)N)NC(=O)[C@H](CC(=O)O)NC(=O)[C@H](Cc2ccc(O)cc2)NC(=O)[C@@H]2CCCN2C(=O)[C@H](CO)NC(=O)[C@H](CCCNC(=N)N)NC(=O)[C@@H]2CSSC[C@H](NC(=O)[C@@H](N)[C@@H](C)O)C(=O)N[C@@H](CCCNC(=N)N)C(=O)N[C@@H](CO)C(=O)N[C@@H](CO)C(=O)NCC(=O)N[C@@H](CCCNC(=N)N)C(=O)N[C@@H](Cc3ccc(O)cc3)C(=O)N2)CSSC[C@@H](C(=O)N[C@H](C(=O)O)C(C)C)NC(=O)[C@H](C)NC(=O)[C@H](CC(=O)O)NC(=O)[C@H]([C@@H](C)O)NC1=O`, the IC50 in series [4] was determined as 4480 nM; in series [3], 27 nM. Also, in series [5], the Stability entry is “Stable”.
In the case of `CC(C)C[C@H](NC(=O)[C@H](CCC(=O)O)NC(=O)[C@@H]1CCCN1C(=O)[C@H](Cc1cnc[nH]1)NC(=O)[C@H](CC(N)=O)NC(=O)[C@@H](NC(=O)[C@H](CO)NC(=O)[C@H](CS)NC(=O)[C@H](C)NC(=O)[C@@H]1CCCN1C(=O)[C@H](Cc1cnc[nH]1)NC(=O)[C@H](CO)NC(=O)[C@H](CS)NC(=O)[C@H](CS)NC(=O)CN)C(C)C)C(=O)N[C@@H](CS)C(N)=O` (H-GCCSHPACSVNHPELC-NH2), the IC50 in series [1] was 22.2 nM; in series [3], 6.9 nM. The Ratio IC50 in series [2] is 3.2.
As to `C[C@@H](O)[C@H](NC(=O)[C@H](CS)NC(=O)[C@H](CS)NC(=O)CN)C(=O)N[C@@H](CC(=O)O)C(=O)N1CCC[C@H]1C(=O)N[C@@H](CCCNC(=N)N)C(=O)N[C@@H](CS)C(=O)N[C@@H](CCCNC(=N)N)C(=O)N[C@@H](Cc1ccc(O)c(I)c1)C(=O)N[C@@H](CCC(N)=O)C(=O)N[C@@H](CS)C(=O)N[C@@H](Cc1ccc(O)cc1)C(=O)O`, the IC50 came to 1.5 nM in series [1] and 0.9 nM in series [3]. For the same molecule, the Ratio IC50 in series [2] is 1.7.
For the molecule `CC[C@H](C)[C@@H]1NC(=O)[C@H](CCCNC(=N)N)NC(=O)[C@H](CCCNC(=N)N)NC(=O)[C@@H]2CSSC[C@H](NC(=O)[C@H](Cc3ccc(O)cc3)NC(=O)[C@H](CCCNC(=N)N)NC(=O)CNC(=O)[C@H](CO)NC(=O)[C@H](CO)NC(=O)[C@H](CCCNC(=N)N)NC(=O)[C@@H](NC(=O)[C@H](C)N)CSSC[C@@H](C(=O)N[C@H](C(=O)O)C(C)C)NC(=O)[C@H](C)NC(=O)[C@H](CC(=O)O)NC(=O)[C@H]([C@@H](C)O)NC1=O)C(=O)N[C@@H](CCCNC(=N)N)C(=O)N[C@@H](CO)C(=O)N1CCC[C@H]1C(=O)N[C@@H](Cc1ccc(O)cc1)C(=O)N[C@@H](CC(=O)O)C(=O)N[C@@H](CCCNC(=N)N)C(=O)N[C@@H](CCCNC(=N)N)C(=O)N[C@@H](CCCNC(=N)N)C(=O)N[C@@H](CCCNC(=N)N)C(=O)N[C@@H](Cc1ccc(O)cc1)C(=O)N2`, the IC50 came to 2450 nM in series [4] and 14 nM in series [3].
As to `CC[C@H](C)[C@H](NC(=O)[C@H](CCC(=O)O)NC(=O)[C@@H]1CCCN1C(=O)[C@H](Cc1cnc[nH]1)NC(=O)[C@H](CC(=O)O)NC(=O)[C@H](Cc1ccc(O)cc1)NC(=O)[C@H](CC(N)=O)NC(=O)[C@H](CS)NC(=O)[C@H](CCCNC(=N)N)NC(=O)[C@@H]1CCCN1C(=O)[C@H](CC(=O)O)NC(=O)[C@H](CO)NC(=O)[C@H](CS)NC(=O)[C@H](CS)NC(=O)CN)C(=O)N[C@@H](CS)C(N)=O`, the IC50 in series [1] was found to be 320 nM; in series [3], 70 nM. The Ratio IC50 in series [2] came out at 4.6.
Take `CC[C@H](C)[C@@H]1NC(=O)[C@H](CCCNC(=N)N)NC(=O)[C@H](CCCNC(=N)N)NC(=O)[C@@H](NC(=O)[C@H](Cc2ccc(O)cc2)NC(=O)[C@H](CCCNC(=N)N)NC(=O)[C@H](CCCNC(=N)N)NC(=O)[C@H](CCCNC(=N)N)NC(=O)[C@H](CCCNC(=N)N)NC(=O)[C@H](C)NC(=O)[C@H](Cc2ccc(O)cc2)NC(=O)[C@@H]2CCCN2C(=O)[C@H](CO)NC(=O)[C@H](CCCNC(=N)N)NC(=O)[C@@H]2CSSC[C@H](NC(=O)[C@@H](N)[C@@H](C)O)C(=O)N[C@@H](CCCNC(=N)N)C(=O)N[C@@H](CO)C(=O)N[C@@H](CO)C(=O)NCC(=O)N[C@@H](CCCNC(=N)N)C(=O)N[C@@H](Cc3ccc(O)cc3)C(=O)N2)CSSC[C@@H](C(=O)N[C@H](C(=O)O)C(C)C)NC(=O)[C@H](C)NC(=O)[C@H](CC(=O)O)NC(=O)[C@H]([C@@H](C)O)NC1=O` (HELM PEPTIDE1{T.C.R.S.S.G.R.Y.C.R.S.P.Y.A.R.R.R.R.Y.C.R.R.I.T.D.A.C.V}$PEPTIDE1,PEPTIDE1,2:R3-9:R3|PEPTIDE1,PEPTIDE1,20:R3-27:R3$$$V2.0): the IC50 in series [4] is 3080 nM; in series [3], 15 nM.
The matching figures for `CC[C@H](C)[C@@H]1NC(=O)[C@H](CCCNC(=N)N)NC(=O)[C@H](CCCNC(=N)N)NC(=O)[C@@H](NC(=O)[C@H](Cc2ccc(O)cc2)NC(=O)[C@H](CCCNC(=N)N)NC(=O)[C@H](CCCNC(=N)N)NC(=O)[C@H](CCCNC(=N)N)NC(=O)[C@H](CCCNC(=N)N)NC(=O)[C@H](CC(=O)O)NC(=O)[C@H](Cc2ccc(O)cc2)NC(=O)[C@@H]2CCCN2C(=O)[C@H](CO)NC(=O)[C@H](CCCNC(=N)N)NC(=O)[C@@H]2CSSC[C@H](NC(=O)[C@@H](N)[C@@H](C)O)C(=O)N[C@@H](CCCNC(=N)N)C(=O)N[C@@H](CO)C(=O)N[C@@H](CO)C(=O)NCC(=O)N[C@@H](CCCNC(=N)N)C(=O)N[C@@H](C)C(=O)N2)CSSC[C@@H](C(=O)N[C@H](C(=O)O)C(C)C)NC(=O)[C@H](C)NC(=O)[C@H](CC(=O)O)NC(=O)[C@H]([C@@H](C)O)NC1=O` (HELM PEPTIDE1{T.C.R.S.S.G.R.A.C.R.S.P.Y.D.R.R.R.R.Y.C.R.R.I.T.D.A.C.V}$PEPTIDE1,PEPTIDE1,2:R3-9:R3|PEPTIDE1,PEPTIDE1,20:R3-27:R3$$$V2.0): 1700 nM and 10 nM.
Taken in the same sequence, the figures for `CC[C@H](C)[C@@H]1NC(=O)[C@H](CCCNC(=N)N)NC(=O)[C@H](CCCNC(=N)N)NC(=O)[C@@H](NC(=O)[C@H](Cc2ccc(O)cc2)NC(=O)[C@H](CCCNC(=N)N)NC(=O)[C@H](CCCNC(=N)N)NC(=O)[C@H](C)NC(=O)[C@H](CCCNC(=N)N)NC(=O)[C@H](CC(=O)O)NC(=O)[C@H](Cc2ccc(O)cc2)NC(=O)[C@@H]2CCCN2C(=O)[C@H](CO)NC(=O)[C@H](CCCNC(=N)N)NC(=O)[C@@H]2CSSC[C@H](NC(=O)[C@@H](N)[C@@H](C)O)C(=O)N[C@@H](CCCNC(=N)N)C(=O)N[C@@H](CO)C(=O)N[C@@H](CO)C(=O)NCC(=O)N[C@@H](CCCNC(=N)N)C(=O)N[C@@H](Cc3ccc(O)cc3)C(=O)N2)CSSC[C@@H](C(=O)N[C@H](C(=O)O)C(C)C)NC(=O)[C@H](C)NC(=O)[C@H](CC(=O)O)NC(=O)[C@H]([C@@H](C)O)NC1=O` were 3780 nM and 18 nM.
Taken in the same sequence, the figures for `CC[C@H](C)[C@@H]1NC(=O)[C@H](CCCNC(=N)N)NC(=O)[C@H](CCCNC(=N)N)NC(=O)[C@@H](NC(=O)[C@H](Cc2ccc(O)cc2)NC(=O)[C@H](CCCNC(=N)N)NC(=O)[C@H](CCCNC(=N)N)NC(=O)[C@H](CCCNC(=N)N)NC(=O)[C@H](CCCNC(=N)N)NC(=O)[C@H](CC(=O)O)NC(=O)[C@H](C)NC(=O)[C@@H]2CCCN2C(=O)[C@H](CO)NC(=O)[C@H](CCCNC(=N)N)NC(=O)[C@@H]2CSSC[C@H](NC(=O)[C@@H](N)[C@@H](C)O)C(=O)N[C@@H](CCCNC(=N)N)C(=O)N[C@@H](CO)C(=O)N[C@@H](CO)C(=O)NCC(=O)N[C@@H](CCCNC(=N)N)C(=O)N[C@@H](Cc3ccc(O)cc3)C(=O)N2)CSSC[C@@H](C(=O)N[C@H](C(=O)O)C(C)C)NC(=O)[C@H](C)NC(=O)[C@H](CC(=O)O)NC(=O)[C@H]([C@@H](C)O)NC1=O` (HELM PEPTIDE1{T.C.R.S.S.G.R.Y.C.R.S.P.A.D.R.R.R.R.Y.C.R.R.I.T.D.A.C.V}$PEPTIDE1,PEPTIDE1,2:R3-9:R3|PEPTIDE1,PEPTIDE1,20:R3-27:R3$$$V2.0) were 3030 nM and 11 nM.
